Data set [1] concerns MCF-7 human breast adenocarcinoma cells (hormone-dependent). Nature of the data set: SRB antiproliferative assay, MCF-7. Type of data set: cell-based. Particulars: for IC50: Homo sapiens, MCF7, SRB assay, 48 h incubation; for (%) cells viability: MCF-7 cells, ligands with IC50 higher than 30 μM. The protocol: (§1) Stock solutions of compounds 1a–5a and 1–5 (0.01 M) in DMSO were freshly prepared and subsequently diluted with cell culture media to appropriate concentrations for various biological experiments. These included the assessment of cell viability using the SRB assay, micronucleus testing, cell morphology studies, cell cycle arrest, AO/EB staining, and mitochondrial membrane permeabilization tests. For CT-DNA binding studies, experiments were conducted in DMSO/buffer solutions. All biological experiments were performed in triplicate or more.
(§2) Stock solutions of 1a–5a and 1–5 (0.01 M) were dissolved in DMSO and subsequently diluted with cell culture medium to the desired concentrations (0.5–30 μM). MCF-7, MDA MB-231, and MRC-5 cells were plated in 96-well flat-bottom microplates at various densities: 6000, 8000, and 2000 cells per well, respectively. The cells were incubated for 24 h at 37 °C and then exposed to 1a–5a and 1–5 for 48 h. ,–
(§3) Cytotoxicity was evaluated using the SRB colorimetric assay at λ = 568 nm, with cell survival percentages calculated relative to the untreated control cells. Detailed information on the SRB assay procedure can be found in the previous publication. ,–
A general note: Sulforhodamine B stains cellular protein and so reports cell mass.

Data set [2] relates to MDA-MB-231 human breast adenocarcinoma cells (hormone-independent). Briefly: SRB antiproliferative assay, MDA-MB-231. Particulars: Homo sapiens, MDA-MB-231, 48 h incubation. The format is cell-based. The protocol: as §1, §2, §3
The subject of data set [3] is normal human fetal lung fibroblast (MRC-5) cells. Briefly: SRB toxicity assay, MRC-5. Type of data set: cell-based. Particulars: Homo sapiens, MRC5, 48 h incubation. The protocol:
as §1, §2, §3

The subject of data set [4] is MCF-7 human breast adenocarcinoma cells (hormone-dependent). Particulars: 48 h incubation; ref not 'this study', ref number not given; cited from earlier work.
The subject of data set [5] is MDA-MB-231 human breast adenocarcinoma cells (hormone-independent). Set-up: method as in column not 'this study', ref number not given. Particulars: 48 h incubation; ref not 'this study', ref number not given; cited from earlier work.
Data set [6] relates to normal human fetal lung fibroblast (MRC-5) cells. Set-up: method as in column not 'this study', ref number not given. Particulars: 48 h incubation; ref not 'this study', ref number not given; cited from earlier work.
Data set [7] has as its system nontumorigenic human breast epithelial cell line (MCF-10A). Also on record: method as in column not 'this study', ref number not given. Particulars: 48 h incubation; ref not 'this study', ref number not given; cited from earlier work.
The next data set concerns MRC-5 cells. Set-up: method as in number not given. Particulars: cited from earlier work.
Data set [8] concerns MCF-7 cells. Set-up: method as in number not given. Particulars: cisplatin comparison; ref number not given; cited from earlier work.
Data set [9] has as its system MCF-7 cells. Set-up: method as in number not given. Particulars: cisplatin comparison; ref number not given; cited from earlier work. This is another data set of the same source.
The subject of data set [10] is MCF-7 cells. Set-up: method as in number not given. Particulars: cisplatin comparison, ref number not given; cited from earlier work.
A further data set has as its target T1, lipoxygenase (LOX) (Glycine max, UniProt P08170).
T1 sequence (P08170 1-839): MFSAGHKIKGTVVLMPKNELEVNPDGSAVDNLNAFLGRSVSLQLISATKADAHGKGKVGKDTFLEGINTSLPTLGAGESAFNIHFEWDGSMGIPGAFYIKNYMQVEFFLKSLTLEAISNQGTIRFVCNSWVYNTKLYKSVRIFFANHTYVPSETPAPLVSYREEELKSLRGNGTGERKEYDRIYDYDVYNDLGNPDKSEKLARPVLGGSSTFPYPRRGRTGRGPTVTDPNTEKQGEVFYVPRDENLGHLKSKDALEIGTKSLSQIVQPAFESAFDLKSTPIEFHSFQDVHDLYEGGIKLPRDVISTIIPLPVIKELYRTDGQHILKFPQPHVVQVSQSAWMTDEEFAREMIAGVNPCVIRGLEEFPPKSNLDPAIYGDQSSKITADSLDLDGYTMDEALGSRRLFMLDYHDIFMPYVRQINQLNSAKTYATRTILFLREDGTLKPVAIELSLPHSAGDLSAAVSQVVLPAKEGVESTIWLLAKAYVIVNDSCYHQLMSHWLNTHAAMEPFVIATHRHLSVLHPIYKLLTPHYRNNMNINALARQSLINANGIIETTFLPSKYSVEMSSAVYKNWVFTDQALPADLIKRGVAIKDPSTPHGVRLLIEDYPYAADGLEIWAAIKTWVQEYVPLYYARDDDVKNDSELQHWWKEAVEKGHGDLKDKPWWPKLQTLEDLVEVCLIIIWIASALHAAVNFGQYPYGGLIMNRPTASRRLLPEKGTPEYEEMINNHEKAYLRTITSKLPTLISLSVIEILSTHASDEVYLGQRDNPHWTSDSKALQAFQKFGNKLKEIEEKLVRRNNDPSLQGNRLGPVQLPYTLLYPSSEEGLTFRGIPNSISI
Particulars: cisplatin comparison; ref number not given; read-out: IC50 against LOX; cited from earlier work.

Results on seven compounds are retold here after paper PMC12239085, “Silver(I) Ions Bridging Oxadiazole-2-thione Derivatives with Mitochondriotropic Agents: A Promising Strategy for Potent Anticancer Chemotherapy” (Inorganic Chemistry, 2025).

Several values for one entry are separate records, joined by “and”; a condition that tells them apart may be missing. Equal values may be shown once. Read-outs that look alike come from different tables or passages of the source. A value given as a limit tells only on which side of the number the result lay.

Consider `S=c1[nH]nc(-c2ccccc2)o1` [1a], for which the IC50 in data set [1], in data set [2] and in [3] was above 30 µM throughout. In addition, in data set [1], the “(%) cells viability” value came to 84.7%.

With `N.N.[Cl][Pt][Cl]` [cisplatin], the IC50 in data set [4] is 5.5 ± 0.4 µM; in data set [5] it was 26.7 ± 1.1 µM; in [6] it was 1.1 ± 0.2 µM; in data set [7] it was 11 ± 3 µM; on lipoxygenase (LOX), 65.9 µM. The “Percentage of MN” value in the data set on MRC-5 cells (control = 0.8, ref number not given) is recorded as 1.6 (control = 0.8) %. For the same compound, the “Relative ratio of MN toward its control” value in the data set on MRC-5 cells (ref number not given) is listed as 2.0. Also, the “relative rate of apoptotic MCF-7 cells” value in the data set on MCF-7 cells [8] is 5.88 and 5.9. Besides, the “Relative rate of MCF-7 cells in sub-G1 phase” value in the data set on MCF-7 cells [9] is 2.9. In addition, the “fluorescence quenching (MMP)” value in the data set on MCF-7 cells [10] is recorded as 54.9%.

Consider `Sc1nnc(-c2ccccc2Cl)o1` [4a], for which the concentration for half-maximal inhibition (IC50) in data set [1], in data set [2] and in [3] was above 30 µM each time. The “(%) cells viability” value in data set [1] was found to be 80.3%.

For `Fc1ccc(-c2nnc(S)o2)cc1` [3a], the IC50 in [1], in data set [2] and in data set [3] was above 30 µM throughout. The “(%) cells viability” value in data set [1] is given as 90.7%.

For `c1ccc(P(c2ccccc2)c2ccccc2)cc1` [TPP, triphenylphosphine], the IC50 in data set [4] is 28.9 ± 1.4 µM; in data set [5], above 30 µM; in data set [6] it was above 30 µM.

As for `Fc1ccccc1-c1nnc(S)o1` [2a], the IC50 in data set [1], in [2] and in data set [3] was above 30 µM each time. In data set [1], the “(%) cells viability” value is reported as 95.7%.

On to `Sc1nnc(-c2cccc(Cl)c2)o1` [5a], for which the IC50 in data set [1], in data set [2] and in [3] was above 30 µM each time. Also, the “(%) cells viability” value in data set [1] came out at 90.1%.

One may read the IC50 as the point on the concentration scale where inhibition reaches its midpoint.
